Assays:
BRPF1B = biological target: T1, BRPF1B (Homo sapiens, UniProt P55201); experiment: Thermal shift assay, BRPF1B; type: binding
T1 construct: purchased in-house (SGC bromodomain thermal shift / AlphaScreen panel)
T1 sequence (P55201 1-1214): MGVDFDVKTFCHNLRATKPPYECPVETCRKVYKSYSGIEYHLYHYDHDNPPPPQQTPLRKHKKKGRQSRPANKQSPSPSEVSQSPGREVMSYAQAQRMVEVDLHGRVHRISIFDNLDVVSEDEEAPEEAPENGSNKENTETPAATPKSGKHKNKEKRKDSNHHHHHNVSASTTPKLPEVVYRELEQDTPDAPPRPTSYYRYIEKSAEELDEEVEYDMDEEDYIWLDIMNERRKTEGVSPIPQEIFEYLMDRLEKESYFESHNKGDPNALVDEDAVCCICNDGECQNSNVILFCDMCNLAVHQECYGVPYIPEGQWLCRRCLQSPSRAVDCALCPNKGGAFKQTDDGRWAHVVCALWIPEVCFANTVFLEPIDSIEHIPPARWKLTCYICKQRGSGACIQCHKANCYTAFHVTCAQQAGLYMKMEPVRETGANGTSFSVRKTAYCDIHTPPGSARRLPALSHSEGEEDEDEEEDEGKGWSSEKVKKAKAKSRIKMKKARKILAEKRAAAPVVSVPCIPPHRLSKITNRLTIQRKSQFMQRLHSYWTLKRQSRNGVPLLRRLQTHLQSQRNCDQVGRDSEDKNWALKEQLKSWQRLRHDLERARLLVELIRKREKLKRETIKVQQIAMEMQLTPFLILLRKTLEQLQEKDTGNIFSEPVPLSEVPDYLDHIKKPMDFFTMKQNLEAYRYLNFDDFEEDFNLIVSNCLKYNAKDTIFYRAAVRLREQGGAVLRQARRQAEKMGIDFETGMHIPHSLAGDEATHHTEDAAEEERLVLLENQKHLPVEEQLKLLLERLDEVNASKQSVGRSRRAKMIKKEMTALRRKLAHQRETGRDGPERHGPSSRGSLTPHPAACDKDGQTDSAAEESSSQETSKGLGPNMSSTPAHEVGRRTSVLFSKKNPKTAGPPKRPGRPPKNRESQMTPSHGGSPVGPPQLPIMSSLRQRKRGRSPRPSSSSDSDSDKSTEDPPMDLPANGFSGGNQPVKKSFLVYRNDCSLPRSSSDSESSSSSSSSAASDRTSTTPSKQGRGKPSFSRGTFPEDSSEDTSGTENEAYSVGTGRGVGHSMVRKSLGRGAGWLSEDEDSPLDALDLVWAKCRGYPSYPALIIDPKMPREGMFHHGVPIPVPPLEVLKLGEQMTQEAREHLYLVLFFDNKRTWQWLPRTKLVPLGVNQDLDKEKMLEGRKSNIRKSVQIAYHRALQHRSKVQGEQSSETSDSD

PB1(5) = biological target: T2, PB1(5) (Homo sapiens, UniProt Q86U86); experiment: Thermal shift assay, PB1(5); type: binding
T2 construct: PB1(5); purchased in-house (SGC bromodomain thermal shift / AlphaScreen panel)
T2 sequence (Q86U86 645-766 limits assumed): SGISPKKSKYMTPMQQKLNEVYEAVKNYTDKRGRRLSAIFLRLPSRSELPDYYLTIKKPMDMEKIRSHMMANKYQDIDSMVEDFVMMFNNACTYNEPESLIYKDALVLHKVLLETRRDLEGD
Description: II.VII Thermal Shift Assay[6]
Thermal melting experiments were carried out using an Mx3005p Real Time PCR machine (Stratagene). Proteins were buffered in 10 mM HEPES pH 7.5, 500 mM NaCl and assayed in a 96-well plate at a final concentration of 2 μM in 20 μL volume. Compounds were added at a final concentration of 50 μM. SYPRO Orange (Molecular Probes) was added as a fluorescence probe at a dilution of 1:1000. Excitation and emission filters for the SYPRO-Orange dye were set to 465 nm and 590 nm, respectively. The temperature was raised with a step of 3 °C per minute from 25 °C to 96 °C and fluorescence readings were taken at each interval. The unfolding curves were fitted using the Boltzmann equation to determine the middle point of the transition.

## CCOC(=O)Nc1cc(-c2ccc(C)c(NS(C)(=O)=O)c2)nn2c(C)nnc12 [Bromosporine, reference compound]
BRPF1B; 10 µM compound concentration
  Thermal stabilisation, BRPF1B: 4.23
PB1(5); 10 µM compound concentration
  Thermal stabilisation, PB1(5): 0.98

## COC(=O)c1ccc(C(=O)Nc2ccc3[nH]c(CN4CCCCC4)nc3c2)cc1 [Compound 1]
BRPF1B; 50 μM compound
  Thermal stabilisation, BRPF1B: 0.275
PB1(5); 50 μM compound
  Thermal stabilisation, PB1(5): -0.245

## C[C@H]1CCCN1Cc1nc2cc(NC(=O)c3ccc4c(cnn4C)c3)ccc2[nH]1 [Compound 92]
BRPF1B; 50 μM compound
  Thermal stabilisation, BRPF1B: -0.435
PB1(5); 50 μM compound
  Thermal stabilisation, PB1(5): -0.56

From article PMC6348381, “Discovery of an MLLT1/3 YEATS Domain Chemical Probe” (Angewandte Chemie (International Ed. in English), 2018)
